The source of these data is US20230201153A1, “COMPOSITIONS AND METHODS FOR TREATMENT OF OBESITY” (EPITRACKER, INC., priority 2020, published 2023).

The nature of experiment [1]: Voluntary customer surveys after daily oral C15:0 supplement (fatty15). The experiment is classed as in vivo, human. Here is the method:
An odd-chain saturated fatty acid dietary supplement, containing an encapsulated pure (>98%) free fatty acid C15:0 powder and called fatty15™, was launched as a consumer health product. Recommended dosing was a single, […] capsule taken orally once a day. Based on our studies with obese mice, we hypothesized that daily oral C15:0 supplementation would decrease snacking and/or improve body weight among customers.
6-Week Survey. Six weeks following receipt of the C15:0 supplement, customers were provided a voluntary electronic questionnaire to evaluate potential near-term benefits, including the question, ‘Overall how much would you agree with the following statement: Since starting fatty15, I feel less hungry between meals, snack less, and/or eat less during meals.’ Survey responders were asked to select a number between 1 and 10, in which 1=Strongly disagree and 10=Strongly agree. A response of 7 or greater was considered an agreement with the statement. Survey responders were also asked if fatty15™ had become a part of their daily health routine.
4-Month Survey. Approximately 4 months following receipt of the C15:0 supplement, customers were provided a second voluntary electronic questionnaire to evaluate potential longer-tem benefits, including the question, ‘Which of the following (if any) have you experienced since starting fatty15, even if this experience has been subtle?’ Two of the possible responses were ‘Healthier eating, including less snacking’ and ‘Healthier body weight’.

Another experiment concerns the target T1, PPARγ (Homo sapiens, UniProt P37231).
T1 construct: host or cells: Chinese hamster ovary (CHO)
T1 sequence (P37231 1-505): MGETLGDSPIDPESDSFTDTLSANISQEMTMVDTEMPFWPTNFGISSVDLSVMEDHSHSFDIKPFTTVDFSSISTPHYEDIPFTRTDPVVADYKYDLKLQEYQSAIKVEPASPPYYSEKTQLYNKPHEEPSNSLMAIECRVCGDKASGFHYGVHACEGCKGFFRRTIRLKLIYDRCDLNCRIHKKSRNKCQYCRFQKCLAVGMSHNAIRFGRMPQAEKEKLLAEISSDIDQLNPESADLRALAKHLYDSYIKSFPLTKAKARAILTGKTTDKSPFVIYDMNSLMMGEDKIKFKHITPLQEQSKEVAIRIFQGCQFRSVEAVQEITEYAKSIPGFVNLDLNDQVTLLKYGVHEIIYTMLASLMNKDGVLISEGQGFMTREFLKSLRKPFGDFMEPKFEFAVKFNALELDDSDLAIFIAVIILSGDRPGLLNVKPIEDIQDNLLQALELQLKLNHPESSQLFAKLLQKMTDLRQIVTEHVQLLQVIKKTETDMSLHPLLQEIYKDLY
Description: PathHunter NHRscan CHO cell-based functional protein interaction assay, PPARγ agonist. Particulars: CHO cells, 10 concentrations up to 100 μM; positive control troglitazone; read-out: concentration with PPARγ agonist activity. Here is the method: (§1) Chinese hamster ovary (CHO, cell line 93-0457C2) cell-based functional protein interaction assays for PPARα, δ, and γ that are part of the Eurofins/DiscoverX PathHunter NHRscan panel (Fremont, Calif.) were used to evaluate C15:0 and C17:0 PPARα, δ and γ agonist activities at 10 concentrations (up to 100 μM). Effective concentrations (EC:50) and maximum activities were determined in relation to positive controls (GW7647 for PPARα, L-165.041 for PPARδ, and troglitazone for PPARγ). Detailed methods used for these assays and assay readouts are available from Eurofins/DiscoverX.

Experiment [2] is described as follows: Body weight of mice fed a high-fat diet with daily oral supplementation. Format: in vivo, male C57BL/6J mice. Particulars: for Body weight / Body weight change (%): high fat diet, n = 10; for percent body weight gain / weight-lowering effect compared to non-supplemented controls: high fat diet mice, C15:0 5 mg/kg, C17:0 5 and 35 mg/kg daily oral. The text has this:
This study assessed the effects of daily oral C15:0 and C17:0 supplementation on the body weight of mice fed a high-fat diet compared to non-supplemented controls.
Forty 6-week old male C57BL/6J mice (Jackson Laboratories, Bar Harbor, Me.) were fed a high fat diet (HFD, 60% kilocalories fat, D12492 Research Diets Inc., New Brunswick, N.J.) for eight weeks. Animals were randomly assigned to one of the following four study groups (10 per group) on Day −1 based on body weight: Group 1 (HFD non-supplemented controls), Group 2 (daily oral 5 mg/kg heptadecanoic acid, C17:0), Group 3 (daily oral 35 mg/kg heptadecanoic acid, C17:0), and Group 4 (daily oral 5 mg/kg pentadecanoic acid, C15:0). Group sizes for this pilot study were based on numerous published studies initially evaluating the effects of other natural small molecules on similar metabolic indices in the same model. Animals were provided the vehicle (1×PBS) or test articles daily via gastric gavage for 12 weeks. Animals were fed the HFD throughout the study. The study was conducted by Charles River Laboratories (Shrewsbury, Mass.), where animals were housed singly in solid bottom polycarbonate cages with Beta-chip contact bedding and enviro-dri nesting material, with temperature and humidity ranges of 18° to 26° C. and 30 to 70%, respectively. A 12 hr light cycle was used, and water and food were provided ad libitum. Body weights and body weight changes were recorded weekly throughout the study. Due to low sample sizes and inability to assume normal distributions, Wilcoxon tests were used to compare body weight values between supplemented and non-supplemented controls; a two-sided P value ≤0.05 was defined as significant.

Experiment [3] has as its target T2, cannabinoid receptor 1 (CB1) (Homo sapiens, UniProt P21554).
T2 construct: purchased DiscoverX/Eurofins, Fremont, Calif
Description: SAFETYscan E/IC50 ELECT functional assay, CB1 agonist activity. Particulars: at 20 μM; relative to positive control CP 55940 assigned 100%. Format: cell-based. The text has this:
(§2) In order to evaluate potential pharmacologic targets of pentadecanoic acid, this study examined agonist and antagonist activities of synthetic pentadecanoic acid (Sigma-Aldrich Product W433400) across 78 assays using SAFETYscan E/IC50 ELECT (DiscoverX/Eurofins, Fremont, Calif.). Briefly, a variety of standardized and optimized functional assays were used, including G protein coupled receptors (ADORA2A, ADRA1A, ADRA2A, ADRB1, ADRB2, CB1, CB2, CCK1, D1, D2S, ETA, H1, H2, M1 M2, M3, OPRD1, OPRK1, OPRM1, 5HTR1A, 5HTR1B, 5HTR2A, 5HTR2B, AVPR1A), kinases (LCK, INSR, VEGFR2, ROCK1), transporters (DAT, NET, SERT), ion channels (GABAA, 5-HT3, CA1.2, HERG, KVLQT1/MINK, NA1.5, NMDAR1/2B, NACHR), nuclear receptors (AR, GR), and non-kinase enzymes (COX1, COX2, ACHE, MAOA, PDE3A, PDE4D2). Ten-point concentration curves for both agonist (EC50) and antagonist (IC50) activity were established for each target. Maximum activity (%) was also determined based on comparisons with internal positive controls, which were assigned 100% activity.

The target in experiment [4] is T3, cannabinoid receptor 2 (CB2) (Homo sapiens, UniProt P34972).
T3 construct: purchased DiscoverX/Eurofins, Fremont, Calif
Nature of the experiment: SAFETYscan E/IC50 ELECT functional assay, CB2 agonist activity. The experiment is classed as cell-based. As to conditions: at 20 μM; relative to positive control CP 55940 assigned 100%.
Excerpt: as §2

The target of a further experiment is T4, PPARα (Homo sapiens, UniProt Q07869).
T4 construct: host or cells: Chinese hamster ovary (CHO)
T4 sequence (Q07869 1-468): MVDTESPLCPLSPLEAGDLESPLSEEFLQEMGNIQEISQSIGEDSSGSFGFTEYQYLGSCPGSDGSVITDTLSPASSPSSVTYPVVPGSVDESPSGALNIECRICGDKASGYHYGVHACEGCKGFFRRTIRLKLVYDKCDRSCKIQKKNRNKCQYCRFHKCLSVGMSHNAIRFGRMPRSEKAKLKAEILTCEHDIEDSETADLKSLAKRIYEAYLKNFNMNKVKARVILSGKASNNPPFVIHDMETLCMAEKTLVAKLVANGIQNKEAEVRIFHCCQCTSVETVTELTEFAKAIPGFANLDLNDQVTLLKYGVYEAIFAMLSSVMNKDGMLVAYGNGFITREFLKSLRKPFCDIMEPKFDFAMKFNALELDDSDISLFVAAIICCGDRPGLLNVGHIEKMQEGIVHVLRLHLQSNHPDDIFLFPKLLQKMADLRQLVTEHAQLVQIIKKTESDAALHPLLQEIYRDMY
Nature of the experiment: PathHunter NHRscan CHO cell-based functional protein interaction assay, PPARα agonist. Particulars: CHO cells, 10 concentrations up to 100 μM; for EC50: read-out: effective concentration needed to reach half-maximum PPARα activity. As to the method:
as §1

A further experiment deals with T5, PPARδ (Homo sapiens, UniProt Q03181).
T5 construct: host or cells: Chinese hamster ovary (CHO)
T5 sequence (Q03181 1-441): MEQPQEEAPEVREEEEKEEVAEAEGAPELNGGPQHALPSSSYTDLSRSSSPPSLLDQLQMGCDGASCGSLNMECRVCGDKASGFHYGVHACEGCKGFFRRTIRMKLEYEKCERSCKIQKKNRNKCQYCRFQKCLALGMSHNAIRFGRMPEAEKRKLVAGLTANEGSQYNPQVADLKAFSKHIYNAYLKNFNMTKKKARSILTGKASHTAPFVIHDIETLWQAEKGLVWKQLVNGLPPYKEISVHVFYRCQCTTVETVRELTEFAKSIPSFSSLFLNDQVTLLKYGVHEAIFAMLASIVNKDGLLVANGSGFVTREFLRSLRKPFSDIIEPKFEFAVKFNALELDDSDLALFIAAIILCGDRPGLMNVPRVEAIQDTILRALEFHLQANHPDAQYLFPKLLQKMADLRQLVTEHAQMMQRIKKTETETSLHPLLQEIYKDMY
Nature of the experiment: PathHunter NHRscan CHO cell-based functional protein interaction assay, PPARδ agonist. As to conditions: CHO cells, 10 concentrations up to 100 μM; for EC50: read-out: effective concentration needed to reach half-maximum PPARδ activity. As to the method: as §1

Where [5] appears, read: after 4 months of daily oral 100 mg, 44 responders.
Setting [6] is: 5 mg/kg daily oral gavage for 12 weeks.
Where [7] appears, read: 5 mg/kg daily oral gavage for 12 weeks, *p < 0.05 compared to controls.
Setting [8] is: 35 mg/kg daily oral gavage for 12 weeks.

Molecules are shown by their SMILES. “Also recorded” adds a separate entry of the source.

T2 sequence (P21554 whole entry): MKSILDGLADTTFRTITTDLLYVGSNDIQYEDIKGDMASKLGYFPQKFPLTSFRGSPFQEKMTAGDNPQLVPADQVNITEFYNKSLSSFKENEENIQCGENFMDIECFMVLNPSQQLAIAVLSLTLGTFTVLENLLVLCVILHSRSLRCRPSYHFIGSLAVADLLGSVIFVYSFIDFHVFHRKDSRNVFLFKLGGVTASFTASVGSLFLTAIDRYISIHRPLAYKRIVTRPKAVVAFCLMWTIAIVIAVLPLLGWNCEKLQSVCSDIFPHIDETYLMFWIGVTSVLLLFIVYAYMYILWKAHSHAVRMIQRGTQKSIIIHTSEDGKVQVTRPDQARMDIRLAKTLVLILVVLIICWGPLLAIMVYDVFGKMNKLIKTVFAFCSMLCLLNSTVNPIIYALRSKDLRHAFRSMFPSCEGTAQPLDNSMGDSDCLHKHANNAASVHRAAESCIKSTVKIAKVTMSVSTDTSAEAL
T3 sequence (P34972 whole entry): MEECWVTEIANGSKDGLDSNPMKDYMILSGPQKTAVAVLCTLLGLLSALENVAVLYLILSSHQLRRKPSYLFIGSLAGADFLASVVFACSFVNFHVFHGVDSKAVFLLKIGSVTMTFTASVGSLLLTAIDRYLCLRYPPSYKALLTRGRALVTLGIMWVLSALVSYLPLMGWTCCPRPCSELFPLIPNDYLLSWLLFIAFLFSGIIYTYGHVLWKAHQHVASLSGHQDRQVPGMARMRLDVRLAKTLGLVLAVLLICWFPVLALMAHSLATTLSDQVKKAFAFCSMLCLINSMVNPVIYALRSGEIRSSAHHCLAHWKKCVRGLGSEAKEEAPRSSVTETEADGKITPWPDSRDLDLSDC

Regarding `CCCCCCCCCCCCCCC(=O)O` [C15:0, pentadecanoic acid], in experiment [1] (setting [5]), the “customers reporting healthier body weight” value came to 21% and the “customers reporting healthier eating, including less snacking” value is recorded as 33%. For the same compound, the “customers reporting feeling less hungry between meals, snacking less, and/or eating less during meals” value in experiment [1] (after 6 weeks of daily oral 100 mg, 114 responders) came to 46%. In addition, the “satiety reported by patients taking the dietary supplement” value in experiment [1] (dietary supplement) was “increased satiety”. Besides, the EC50 on PPARγ is ≥ 100 µM. In addition, the “Body weight” value in experiment [2] (setting [6]) is on record as 41 ± 5 g. The “Body weight change (%)” value in experiment [2] (setting [7]) is on record as 120 ± 6* %. In addition, in experiment [2], the “percent body weight gain / weight-lowering effect compared to non-supplemented controls” value was “weight-lowering effect was observed; also recorded: lower percent body weight gain”. In experiment [3], this compound yielded a CB1 agonist activity of 24.5%. For the same compound, in experiment [4], the CB2 agonist activity is listed as 18.2%. Moreover, on PPARα, the “maximum PPARα agonist activity compared to positive control GW7647” value was found to be 65.8% and the EC50 was 11.5 µM. For the same compound, at PPARδ, the “maximum PPARδ agonist activity compared to positive control L-165,041” value is 52.8% and the EC50 was determined as 2.7 µM.

For the compound `CCCCCCCCCCCCCCCCC(=O)O` [C17:0, heptadecanoic acid], the EC50 is ≥ 100 µM at PPARγ, > 100 µM on PPARα and 17.4 µM at PPARδ. The “Body weight” value came out at 43 ± 6 g in experiment [2] (setting [6]) and 41 ± 7 g in experiment [2] (setting [8]). For the same compound, the “Body weight change (%)” value in experiment [2] (setting [7]) is given as 127 ± 9%; in experiment [2] (setting [8]), 122 ± 12%. In addition, in experiment [2], the “percent body weight gain / weight-lowering effect compared to non-supplemented controls” value is reported as “weight-lowering effect was not observed; also recorded: did not significantly decrease percent body weight”. Also, the “maximum PPARδ agonist activity compared to positive control L-165,041” value on PPARδ is on record as 39.8%.
